We go through two compounds from patent US20250388597A1, “BIFUNCTIONAL PHOTOCROSSLINKING PROBES FOR COVALENT CAPTURE OF PROTEIN-NUCLEIC ACID COMPLEXES IN CELLS” (UNIVERSITY OF SOUTHERN CALIFORNIA, priority 2022, published 2025).

In one data set the target is T1, DNA binding by NFAT1 (Homo sapiens, UniProt Q13469).
T1 construct: human NFAT1 protein (residue 399-676, NFAT1-DBD)
T1 sequence (Q13469 399-676): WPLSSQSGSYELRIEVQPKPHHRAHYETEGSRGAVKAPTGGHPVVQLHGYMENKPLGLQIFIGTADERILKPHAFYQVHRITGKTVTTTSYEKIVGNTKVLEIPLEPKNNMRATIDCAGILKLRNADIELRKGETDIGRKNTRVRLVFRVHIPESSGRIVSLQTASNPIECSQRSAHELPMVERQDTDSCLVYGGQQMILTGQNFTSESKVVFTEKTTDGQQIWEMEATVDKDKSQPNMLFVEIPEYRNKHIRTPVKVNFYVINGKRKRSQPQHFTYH
The data set can be described thus: Native EMSA of the effect on DNA binding by NFAT1. The class given is biochemical. Particulars: FIG. 12C; increasing concentrations; probes with UV 365 nm 15 min; compared to control lane 3.

The target of the next data set is T2, p53/DNA complex (Homo sapiens, UniProt P04637).
T2 construct: the human tumor suppressor p53 DBD; made in house
T2 sequence (P04637 102-292 limits assumed, one chain of several): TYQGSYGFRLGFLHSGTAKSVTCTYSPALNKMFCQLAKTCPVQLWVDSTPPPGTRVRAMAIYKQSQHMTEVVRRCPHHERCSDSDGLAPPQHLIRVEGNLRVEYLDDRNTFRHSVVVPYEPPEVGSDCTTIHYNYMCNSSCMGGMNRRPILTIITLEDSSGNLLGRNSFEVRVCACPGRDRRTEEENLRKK
The data set can be described thus: BFPX crosslinking of p53/DNA complexes, SDS PAGE. The class given is biochemical. Particulars: denaturing SDS PAGE; probes with UV; vs no-protein controls. As to the method:
FIG. 12I depicts BFPX crosslinking of p53/DNA complexes. The binding reactions between the human tumor suppressor p53 DBD and a 37 mer Cy5 labeled DNA containing a consensus p53 tetramer binding site (5′-/5Cy5/-[…]-3′, (SEQ ID NO: 8)) were set up and treated with BFPX probes and UV illumination as described in FIG. 12C. The various treatment combinations were list above the gel. The reactions were then analyzed by SDS PAGE under denaturing condition as described in FIG. 12D. […] Because p53 bind this this DNA substrate as a tetramer, crosslinked p53/DNA complexes may contain one or more p53 protein molecules. While the monomeric p53/DNA complex appears to be the dominant crosslinked protein-DNA complexes, higher-molecule weight species were visible in SDS gel, which may correspond to crosslinked higher-order p53/DNA complex.

The test system of the next data set is Hela cells. The data set can be described thus: Cell and nuclear permeability by click labelling with Alexa Fluor 647 picolyl azide, fluorescence imaging. The class given is cell-based. Particulars: for dependence of immobilized fluorescent signal on probe concentration: 10 μM vs 100 μM under UV illumination, FIG. 14B; for immobilization of Alexa Fluor 647 picolyl azide in cells (cell and nuclear permeability): probe 10 μM or 100 μM, 30 min, UV 365 nm 5 min. The source says: FIG. 11A-FIG. 11F depicts permeability and subcellular distribution of the BFPX probe SPB-AAD in Hela cell. Top panel (FIG. 11A-FIG. 11C): buffer control experiments without adding SPB-AAD, (FIG. 11A) bright field; (FIG. 11B) fluorescence imaging of Alexa Fluor; (FIG. 11C) DAPI stain of the nuclei; Bottom panel: treatment with […], (FIG. 11D) bright field; (FIG. 11E) fluorescence imaging of Alexa Fluor; (FIG. 11F) DAPI stain of the nuclei.
FIG. 14A depicts characterization and testing of BFPX crosslinking inside cells. Hela cells were incubated with SPB-AAD or SPB-PEG4-AAD (10 μM or 100 μM) in the dark for 30 min to allow the DNA binding and intercalation by the psoralen moiety of the BFPX probes. After washing off the excessive BFPX probe, illuminate UV 365 nm for 5 min. An Alexa Fluor 647 picolyl azide molecule (from Click-iT™ Plus Alexa Fluor™ 647 Picolyl Azide Toolkit) was used to react with the alkyne group on SPB-AAD or SPB-PEG4-AAD via click reaction. After the click chemistry labeling, the unreacted fluorescent molecules were removed by washing. The nuclei were analyzed using fluorescence imaging. When no BFPX probes were added (columns 1 and 2) or adding probes without UV treatment (columns 3 and 6), little or no fluorescence signal was retained in the cells.
We next tested the cell and nuclear permeability of the BFPX probes using azide-containing fluorescent molecules through click reaction with the terminal alkyne in SPB-AAD and SPB-PEG4-AAD. Briefly, Hela cells were incubated with SPB-AAD or SPB-PEG4-AAD (10 μM or 100 μM) in the dark for 30 min to allow the DNA binding and intercalation by the psoralen moiety of the BFPX probes. After washing off the excess BFPX probes followed by illumination of UV 365 nm for 5 min, Alexa Fluor 647 picolyl azide was coupled to the alkyne group on SPB-AAD or SPB-PEG4-AAD via click reaction. After the click chemistry labeling, the unreacted fluorescent molecules were removed by washing. The nuclei were then be analyzed using fluorescence imaging (FIG. 14A). When no BFPX probes were added (columns 1 and 2) or adding probes without UV treatment (columns 3 and 6), little or no fluorescence signal was retained in the cells.
We also analyzed (i) cell permeability and subcellular distribution of the BFPX probes. We validated the cell and nuclear permeability of the BFPX probes and monitored their sub-cellular distribution using azide-containing fluorescent label through click reaction with the alkyne group (as in SPB-AAD and SPB-PEG3-AAD). Briefly, Hela cells were incubated with SPB-AAD (25 μM) in the dark for 30 min to allow the DNA binding and intercalation by the psoralen moiety of the BFPX probe. […] The nuclei were then analyzed using fluorescence imaging (FIG. 11). […]

Protocol for DNA binding by NFAT1: All binding reactions contain 10 μM 27 mer dsDNA (5′6-FAM labeled) with a NFAT-binding site, and various combinations of NFAT1 protein (14 μM), FA (1% v/v), 4AMT-LC-SDA (20 μM), with or without UV illumination (365 nm, LED, 30 Watt, sample distance 2 cm, exposure time 15 min at 4 degree C.). 10 μl of the binding reaction is run on a 10% PAGE 0.5×TBE gel. The same gel was visualized by FAM fluorescence for DNA (top) and by Coomassie blue stain for protein (bottom). The higher smearing bands in lane 3, 8, 9, and 10 are most likely non-specific protein complexes often seen when an excessive amount of protein is used to ensure all DNA is bound.
The binding reactions were performed in a buffer of 20 mM Hepes pH 7.6, 150 mM NaCl, 1 mM DTT, 12% glycerol. Typically protein and DNA are mixed to bind at room temperature for 30 min, followed by addition of BFPX probes for an additional 15 min and then UV illumination. In the case of FA treatment, the reaction time is 10 min at room temperature and then quenched by 250 mM glycine. When included (as indicated by a positive sign), the binding reaction contains 10 μM 27 mer dsDNA (Cy5-labeled) with a NFAT-binding site (the antigen receptor response element 2, ARRE2, from the IL-2 promoter, 5′-Cy5-[sequence]-3′ (SEQ ID NO: 2), the complementary strand is not labeled), 24 μM of the DNA binding domain (DBD) of human NFAT1 protein (residue 399-676, NFAT1-DBD). The UV illumination (as indicated by a positive sign) was carried out using a LED Chip (21.4 mm×21.4 mm, 365-370 nm, 30 Watt, sample distance 2 cm, exposure time 2-15 min at 4 degree C., here the exposure time is 15 min). Half of the binding reaction (7.5 μl) was run on a 10% PAGE 0.5×TBE gel and visualized by Cy5 fluorescence on DNA. The small amount of single stranded DNA is due to incomplete annealing. The higher smearing bands are most likely non-specific protein complexes. Neither of these experimental imperfections affected the main conclusion of this experiment because the double stranded-DNA bands and the specific NFAT-DNA complex bands (the middle sharp bands) are well defined and can be monitored without the interference of the other bands.
The presence of both DNA and protein in the same shifted band can be checked by the FAM fluorescence signal (top) and Coomassie stain (bottom), respectively (free NFAT is positively charged and not observable under the EMSA condition).

Consider `C#CCCC1(CCNC(=O)CCCOc2c3occc3cc3ccc(=O)oc23)N=N1` [SPB-AAD, N-(2-(3-(but-3-yn-1-yl)-3H-diazirin-3-yl)ethyl)-4-((7-oxo-7H-furo[3,2-g]chromen-9-yl)oxy)butanamide], for which the “effect on the binding of NFAT1 to DNA” value at DNA binding by NFAT1 is given as “little or no effect”. Moreover, the “crosslinking of the p53/DNA complex” value on p53/DNA complex is reported as “significant crosslinking of the p53/DNA complex”. Also, in the data set with Hela cells, the “dependence of immobilized fluorescent signal on probe concentration” value is recorded as “dosage dependent”; the “immobilization of Alexa Fluor 647 picolyl azide in cells (cell and nuclear permeability)” value is listed as “could be immobilized in the cells via click reaction”.
For `C#CCCC1(CCNC(=O)CCOCCOCCOCCOCCNC(=O)CCCOc2c3occc3cc3ccc(=O)oc23)N=N1` [SPB-PEG4-AAD, N-(2-(3-(but-3-yn-1-yl)-3H-diazirin-3-yl)ethyl)-1-(4-((7-oxo-7H-furo[3,2-g]chromen-9-yl)oxy)butanamido)-3,6,9,12-tetraoxapentadecan-15-amide], in that order: “little or no effect”, “significant crosslinking of the p53/DNA complex”, “dosage dependent” and “could be immobilized in the cells via click reaction”.
